Data published in US8193189B2, “Quinoxaline derivatives as tyrosine kinase activity inhibitors” (Novartis AG, priority 2007, dated 2012).

Key:
[1] = test system: JAK/STAT pathway (JAK1/JAK2-dependent nuclear translocation of STAT1-GFP); experiment: Inhibition of the JAK/STAT pathway: IFN-γ stimulated nuclear translocation of STAT1-GFP in HT1080 fibrosarcoma cells; type: cell-based; settings: Homo sapiens, HT-1080; HT1080 STAT1-GFP cells, 100 ng/ml IFN-γ 2 hours, compound added 30 min before; read-out: STAT1translo IC50
Text: The medium-throughput (96-well format), robust and reproducible cellular assay can be routinely used to assess the functional activation of Janus Kinases (JAKs), based on the nuclear translocation of their substrate, Signal Transducer and Activator of Transcription (STAT). Nuclear translocation can be monitored in HT1080 fibrosarcoma cells stably transfected with STAT1 fused to Green Fluorescence Protein (GFP). Stimulation with interferon-γ (IFN-γ) results in JAK1/JAK2-dependent nuclear translocation of STAT1-GFP that can be quantified using the Cellomics Cyto/NucTrans software package. This assay may be used to provide an assessment of the nuclear-cytoplasmic differential (NCD) of GFP-STAT1 using Hoechst dye to define the boundaries of the nucleus.
Compounds can be dissolved in DMSO to a final stock concentration of 10 mM and stored as aliquots at 4° C. Compounds may be pre-diluted in 100% DMSO at 10 mM, 3 mM 1 mM, 0.3 mM, 0.1 mM, 0.03 mM, 0.01 mM and 0.003 mM. Subsequently, compounds may be diluted in medium and added in 50 μl to the cells. The final compound concentrations tested may be 10 μM, 3 μM 1 μM, 0.3 μM, 0.1 μM, 0.03 μM, 0.01 μM and 0.003 μM and the final DMSO concentration can be 0.1%.
The plates may then be washed once in PBS, and 200 μl PBS finally added per well. The plates, being finally covered with a black adhesive, may be either read directly or stored at 4° C. for later imaging. Where appropriate, the compounds may be added 30 min before stimulation with IFN-γ.
The plates can be read on a Cellomics® ArrayscanII automated fluorescence microscope plate reader equipped with a Mercury-Xenon white light illumination source and a Zeiss Axiovert inverted microscope, using the XF100 dichroic/emission filter cube and matching excitation filters, 10× magnification, and a 0.3 numerical aperture objective. Image acquisition and analysis can be performed using a customized protocol based on the ‘NuclearTranslocation’ Bioapplication (for details, see Appendices). For each well, multiple images (fields) can be acquired until a minimum of 1000 cells are counted using two 2 channels: Channel 1 (Hoechst)=focus+nuclear mask, Channel 2 (GFP)=signal quantification in mask areas as outlined below.
Nuclei may be first identified based on the Hoechst staining and a mask generated for each nucleus that then serves as a template to generate a circle (eroded inwards by 1 pixel) and a 3 pixel-wide collar-like ring (off-set outwards by 1 pixel), in which the nuclear and cytoplasmic intensity of GFP, respectively, are quantified in the corresponding channel. High content analysis yields numerous measurements per cell and the GPF intensity differential between the nuclear and the cytoplasmic masks may be chosen as a measure of sub-cellular GFP-STAT1 relocation. The resulting values may be averaged for all cells in the well to return a single measurement plus standard deviation.

GST-JAK2(808-1132) = molecular target: T1, GST-JAK2(808-1132) (Homo sapiens, UniProt O60674); experiment: EPK JAK-family kinases profiling assay (Caliper mobility shift), JAK2; type: biochemical; settings: ATP 20 μM, 1.8 nM kinase
T1 construct: GST-JAK2(808-1132); purchased Invitrogen (Carlsbad, USA) #4288
Text: (§1) All four kinases of the JAK-family kinases were used as purified recombinant GST-fusion proteins, containing the active kinase domains. GST-JAK1(866-1154), GST-JAK3(811-1124), and GST-TYK2(888-1187) were expressed and purified by affinity chromatography at the EPK biology unit. GST-JAK2(808-1132) was purchased from Invitrogen (Carlsbad, USA, #4288).
(§2) The kinase assays were based on the Caliper mobility shift assay using the LabChip 3000 systems. This technology is similar to capillary electrophoresis and uses charge driven separation of substrate and product in a microfluidic chip.
(§3) All kinase reactions were performed in 384 well microtiter plates in a total reaction volume of 18 μl. The assay plates were prepared with 0.1 μl per well of test compound in the appropriate test concentration, as described under the section “preparation of compound dilutions”. The reactions were started by combining 9 μl of substrate mix (consisting of peptide and ATP) with 9 μl of kinase dilution. The reactions were incubated for 60 minutes at 30° C. and stopped by adding 70 μl of stop buffer (100 mM Hepes, 5% DMSO, 0.1% Coating reagent, 10 mM EDTA, 0.015% Brij 35).
(§4) Fluorescently labeled synthetic peptides were used as substrates in all reactions. […] Specific assay conditions are described in Table 1:
(§5) The terminated reactions were transferred to the Caliper LabChip 3000 reader and the turnover of each reaction was measured by determining the substrate/product ratio.
(§6) Test compounds were dissolved in DMSO (10 mM) and transferred into 1.4 mL flat bottom or V-shaped Matrix tubes carrying a unique 2D matrix chip by individual compound hubs. The numbers of these chips were distinctively linked to the individual compound identification numbers. The stock solutions were stored at −20° C. if not used immediately. For the test procedure the vials were defrosted and identified by a scanner whereby a working sheet was generated that guided the subsequent working steps.
(§7) Compound dilutions were made in 96 well plates. This format enabled the assay of maximally 40 individual test compounds at 8 concentrations (single points) including 4 reference compounds. The dilution protocol included the production of pre-dilution plates, master plates and assay plates:
(§8) Pre-dilution plates: 96 polypropylene well plates were used as pre-dilution plates. A total of 4 pre-dilution plates were prepared including 10 test compounds each on the plate positions A1-A10, one standard compound at A11 and one DMSO control at A12. All dilution steps were done on a HamiltonSTAR robot.
(§9) Master plates: 100 μL of individual compound dilutions including standard compound and controls of the 4 “pre-dilution plates” were transferred into a 384 “master plate” including the following concentrations 1′820, 564, 182, 54.6, 18.2, 5.46, 1.82 and 0.546 μM, respectively in 90% of DMSO.
(§10) Assay plates: Identical assay plates were then prepared by pipetting 100 nL each of compound dilutions of the master plates into 384-well “assay plates”. […] The preparation of the master plates were handled by the Matrix PlateMate Plus robot and replication of assay plates by the HummingBird robot.

GST-JAK3(811-1124) = molecular target: T2, GST-JAK3(811-1124) (Homo sapiens, UniProt P52333); experiment: EPK JAK-family kinases profiling assay (Caliper mobility shift), JAK3; type: biochemical; settings: ATP 80 μM, 6 nM kinase
T2 construct: GST-JAK3(811-1124); made in house
Text: as §1, §2, §3, §4, §5, §6, §7, §8, §9, §10

GST-JAK1(866-1154) = molecular target: T3, GST-JAK1(866-1154) (Homo sapiens, UniProt P23458); experiment: EPK JAK-family kinases profiling assay (Caliper mobility shift), JAK1; type: biochemical; settings: ATP 40 μM, 50 nM kinase
T3 construct: GST-JAK1(866-1154); made in house
Text: as §1, §2, §3, §4, §5, §6, §7, §8, §9, §10

T1 sequence (O60674 808-1132): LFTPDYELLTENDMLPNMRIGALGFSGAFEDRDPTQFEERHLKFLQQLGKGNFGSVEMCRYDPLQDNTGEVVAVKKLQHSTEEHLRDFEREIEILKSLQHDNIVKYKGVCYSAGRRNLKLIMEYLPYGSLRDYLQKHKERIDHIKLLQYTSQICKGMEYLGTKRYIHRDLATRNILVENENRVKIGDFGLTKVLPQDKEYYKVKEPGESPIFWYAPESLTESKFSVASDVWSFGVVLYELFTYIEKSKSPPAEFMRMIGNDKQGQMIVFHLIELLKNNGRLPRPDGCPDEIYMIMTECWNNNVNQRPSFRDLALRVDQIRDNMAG
T2 sequence (P52333 811-1124): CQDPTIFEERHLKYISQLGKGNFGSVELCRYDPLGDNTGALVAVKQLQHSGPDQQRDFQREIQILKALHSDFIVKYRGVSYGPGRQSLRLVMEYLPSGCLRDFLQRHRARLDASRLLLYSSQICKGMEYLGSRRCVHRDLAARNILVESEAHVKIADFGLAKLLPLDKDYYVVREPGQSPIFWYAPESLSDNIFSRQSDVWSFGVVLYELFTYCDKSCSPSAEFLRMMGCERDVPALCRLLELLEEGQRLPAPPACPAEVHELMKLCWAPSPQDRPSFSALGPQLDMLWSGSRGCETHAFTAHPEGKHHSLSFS
T3 sequence (P23458 866-1154): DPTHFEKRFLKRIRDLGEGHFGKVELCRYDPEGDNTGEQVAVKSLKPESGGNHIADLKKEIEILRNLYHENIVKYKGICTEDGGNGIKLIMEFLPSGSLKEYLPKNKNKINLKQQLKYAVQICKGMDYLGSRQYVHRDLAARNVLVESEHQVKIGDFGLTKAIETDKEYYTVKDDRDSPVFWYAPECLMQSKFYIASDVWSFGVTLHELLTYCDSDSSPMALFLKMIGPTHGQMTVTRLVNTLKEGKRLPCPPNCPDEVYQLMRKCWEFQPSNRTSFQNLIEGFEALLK

| SMILES | IC50 [1] [nM] | IC50 (GST-JAK2(808-1132)) [nM] | IC50 (GST-JAK3(811-1124)) [nM] | IC50 (GST-JAK1(866-1154)) [nM] |
| --- | --- | --- | --- | --- |
| CCOc1ccc(-c2cnc3cccc(-c4ccc(C(=O)N5CCOCC5)c(F)c4)c3n2)cc1OCC [Example 28, {4-[3-(3,4-Diethoxy-phenyl)-quinoxalin-5-yl]-2-fluoro-phenyl}-morpholin-4-yl-methanone] | 2180 | 12 | > 10000 | – |
| CCNS(=O)(=O)c1ccc(-c2cccc3ncc(-c4cc(OC)c(OC)c(OC)c4)nc23)cc1 [Example 7, N-Ethyl-4-[3-(3,4,5-trimethoxy-phenyl)-quinoxalin-5-yl]-benzenesulfonamide] | – | 95 | 8420 | – |
| CS(=O)(=O)Nc1cccc(-c2cnc3cccc(-c4ccc(CC(=O)N5CCOCC5)cc4)c3n2)c1 [Example 38, N-(3-{8-[4-(2-Morpholin-4-yl-2-oxo-ethyl)-phenyl]-quinoxalin-2-yl}-phenyl)-methanesulfonamide] | – | 23 | 4200 | – |
| CCS(=O)(=O)c1ccc(-c2cccc3ncc(-c4ccc(O)c(OC)c4)nc23)cc1 [Example 77, 4-[8-(4-Ethanesulfonyl-phenyl)-quinoxalin-2-yl]-2-methoxy-phenol] | – | 130 | 9800 | – |
| CNC(=O)c1ccc(-c2cccc3ncc(-c4cc(OC)c(OC)c(OC)c4)nc23)cc1 [Example 9, N-Methyl-4-[3-(3,4,5-trimethoxy-phenyl)-quinoxalin-5-yl]-benzamide] | – | 170 | > 10000 | – |
| COc1cc(-c2cnc3cccc(-c4ccc(CN5CCOCC5)c(C)c4)c3n2)cc(OC)c1OC [Example 21, 8-(3-Methyl-4-morpholin-4-ylmethyl-phenyl)-2-(3,4,5-trimethoxy-phenyl)-quinoxaline] | – | – | – | 1800 |
| COc1cc(-c2cnc3cccc(-c4ccc(CN5CCOCC5)cc4)c3n2)cc(OC)c1OC [Example 15, 8-(4-Morpholin-4-ylmethyl-phenyl)-2-(3,4,5-trimethoxy-phenyl)-quinoxaline] | – | – | > 10000 | – |
| COc1cc(-c2cnc3cccc(-c4ccc(CN5CCOCC5)c(F)c4)c3n2)cc(OC)c1OC [Example 20, 8-(3-Fluoro-4-morpholin-4-ylmethyl-phenyl)-2-(3,4,5-trimethoxy-phenyl)-quinoxaline] | – | 24 | – | 160 |
| COc1cc(-c2cnc3cccc(-c4ccc(CN5CCS(=O)(=O)CC5)cc4)c3n2)cc(OC)c1OC [Example 19, 8-[4-(1,1-Dioxido-thiomorpholin-4-ylmethyl)-phenyl]-2-(3,4,5-trimethoxy-phenyl)-quinoxaline] | – | – | – | 59 |
| COc1ccc(-c2cnc3cccc(-c4ccc(S(C)(=O)=O)cc4)c3n2)cc1OC [Example 23, 2-(3,4-Dimethoxy-phenyl)-8-(4-methanesulfonyl-phenyl)-quinoxaline] | – | 200 | > 10000 | – |
| COc1cc(-c2cnc3cccc(-c4ccc(S(C)(=O)=O)cc4)c3n2)cc(OC)c1OC [Example 2, 8-(4-Methanesulfonyl-phenyl)-2-(3,4,5-trimethoxy-phenyl)-quinoxaline] | – | 120 | 5400 | – |
| CCS(=O)(=O)c1ccc(-c2cccc3ncc(-c4cccc(NS(C)(=O)=O)c4)nc23)cc1 [Example 39, N-{3-[8-(4-Ethanesulfonyl-phenyl)-quinoxalin-2-yl]-phenyl}-methanesulfonamide] | – | 190 | > 10000 | – |
| COc1cc(-c2cnc3cccc(-c4ccc(S(=O)(=O)C(C)C)cc4)c3n2)cc(OC)c1OC [Example 4, 8-[4-(Propane-2-sulfonyl)-phenyl]-2-(3,4,5-trimethoxy-phenyl)-quinoxaline] | – | 220 | > 10000 | – |
| COc1cc(-c2cnc3cccc(-c4ccc(NS(C)(=O)=O)cc4)c3n2)cc(OC)c1OC [Example 12, N-{4-[3-(3,4,5-Trimethoxy-phenyl)-quinoxalin-5-yl]-phenyl}-methanesulfonamide] | – | 52.5 | > 10000 | 180 |
| CCS(=O)(=O)c1ccc(-c2cccc3ncc(-c4ccc(OCCOC)c(OC)c4)nc23)cc1 [Example 47] | – | 38 | > 10000 | – |
| COc1cc(-c2cnc3cccc(-c4ccc(S(N)(=O)=O)cc4)c3n2)cc(OC)c1OC [Example 5, 4-[3-(3,4,5-Trimethoxy-phenyl)-quinoxalin-5-yl]-benzenesulfonamide] | – | 110 | > 10000 | – |
| COc1cc(-c2cnc3cccc(-c4ccc(C(=O)N5CCOCC5)c(C)c4)c3n2)cc(OC)c1OC [Example 16, {2-Methyl-4-[3-(3,4,5-trimethoxy-phenyl)-quinoxalin-5-yl]-phenyl}-morpholin-4-yl-methanone] | – | 19 | – | – |
| COc1cc(-c2cnc3cccc(-c4ccc(C(=O)N5CCOCC5)cc4F)c3n2)cc(OC)c1OC [Example 1, {3-Fluoro-4-[3-(3,4,5-trimethoxy-phenyl)-quinoxalin-5-yl]-phenyl}-morpholin-4-yl-methanone] | – | 82 | 4400 | – |
| COc1cc(-c2cnc3cc(C)cc(-c4ccc(C(=O)N5CCOCC5)cc4)c3n2)cc(OC)c1OC [Example 79, {4-[7-Methyl-3-(3,4,5-trimethoxy-phenyl)-quinoxalin-5-yl]-phenyl}-morpholin-4-yl-methanone] | – | 520 | > 10000 | – |
| COc1cc(-c2cnc3cccc(-c4ccc(CC(=O)N5CCOCC5)cc4)c3n2)cc(OC)c1OC [Example 11, 1-Morpholin-4-yl-2-{4-[3-(3,4,5-trimethoxy-phenyl)-quinoxalin-5-yl]-phenyl}-ethanone] | – | 9 | – | 39 |
| COc1cc(-c2cnc3cccc(-c4ccc(S(=O)(=O)N(C)C)cc4)c3n2)cc(OC)c1OC [Example 8, N,N-Dimethyl-4-[3-(3,4,5-trimethoxy-phenyl)-quinoxalin-5-yl]-benzenesulfonamide] | – | 110 | > 10000 | – |
